Reference: patent US7396837B2, “Antitumoral analogs of lamellarins” (Pharma Mar, S.A.U., priority 2002, dated 2008)
Read-outs that look alike come from different tables or passages of the source.

Experiments:
SKOV-3 [1] = assay: SRB colorimetric cell growth inhibition assay, SKOV-3; format: cell-based; conditions: Homo sapiens; for GI50: SK-OV-3, SKOV-3, GI=growth inhibition, read-out: GI50 SKOV-3; for LC50 (concentration causing 50% net cell killing) / IC (TGI): SK-OV-3, SKOV-3; for LC50 (concentration causing 50% net cell killing): cell killing (cytotoxic effect), read-out: LC50 SKOV-3; for IC (TGI): total growth inhibition (cytostatic effect), read-out: TGI SKOV-3
Outline: (§1)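 Growth inhibition (GI), total growth inhibition (TGI, cytostatic) and lethal concentration (LC, cytotoxic) come from an SRB-based colorimetric measure of growth and viability. Data are triplicate-well means ± SD.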

[2] = SRB colorimetric cell growth inhibition assay, H-MEC-1; format: cell-based; conditions: human, H-MEC-1, cell killing (cytotoxic effect), read-out: LC50 H-MEC-1
Outline: as §1

human topoisomerase I = molecular target: T1, human topoisomerase I (Homo sapiens, UniProt P11387); assay: Topoisomerase I cleavage of radiolabeled 117-bp DNA fragment; format: biochemical; conditions: 117-bp DNA restriction fragment 3' end-labeled; for topoisomerase I-mediated DNA cleavage sites / cleavage profile: sequencing-type polyacrylamide gels
T1 sequence (P11387 1-765): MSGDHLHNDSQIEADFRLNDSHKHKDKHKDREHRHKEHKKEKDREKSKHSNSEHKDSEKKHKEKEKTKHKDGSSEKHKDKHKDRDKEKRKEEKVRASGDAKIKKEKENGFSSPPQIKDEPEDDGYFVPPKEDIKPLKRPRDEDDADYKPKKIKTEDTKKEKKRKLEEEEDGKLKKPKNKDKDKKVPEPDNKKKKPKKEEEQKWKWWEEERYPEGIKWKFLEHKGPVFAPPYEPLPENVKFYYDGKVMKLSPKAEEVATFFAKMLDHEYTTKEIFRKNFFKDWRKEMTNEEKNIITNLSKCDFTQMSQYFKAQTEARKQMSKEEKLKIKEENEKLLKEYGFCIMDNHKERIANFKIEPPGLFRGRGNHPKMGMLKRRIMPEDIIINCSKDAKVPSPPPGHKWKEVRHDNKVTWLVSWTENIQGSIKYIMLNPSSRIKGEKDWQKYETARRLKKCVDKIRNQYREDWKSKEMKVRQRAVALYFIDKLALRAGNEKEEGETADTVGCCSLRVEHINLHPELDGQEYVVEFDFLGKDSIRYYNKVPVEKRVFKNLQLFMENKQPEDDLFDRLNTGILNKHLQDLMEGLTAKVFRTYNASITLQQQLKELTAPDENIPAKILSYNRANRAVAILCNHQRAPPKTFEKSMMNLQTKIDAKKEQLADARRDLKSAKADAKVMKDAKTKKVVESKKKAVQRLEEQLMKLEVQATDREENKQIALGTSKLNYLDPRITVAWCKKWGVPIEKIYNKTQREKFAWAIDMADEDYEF
From the text: Two assays, based on DNA relaxation and DNA cleavage (Bailly, C. DNA relaxation and cleavage assays to study topoisomerase I inhibitors. Methods Enzymol. 2001, 340, 610-623) were used evaluate the effects of the lamellarin analogs on the catalytic activity of human topoisomerase I.
A second assay, based on the cleavage of a radiolabeled DNA substrate by topoisomerase I, was used to confirm that the cationic lamellarin derivatives do effectively function as topoisomerase I poisons. A 117-bp DNA restriction fragment uniquely end-labeled at the 3′ end was subjected to cleavage by topoisomerase I in the presence of the different compounds and the resulting DNA cleavage products were resolved on sequencing-type polyacrylamide gels. The advantage of this assay is to detect the cleavage sites and to locate their positions with nucleotide resolution, providing thus information on the site selectivity of cleavage.

[3] = SRB colorimetric cell growth inhibition assay, H-MEC-1; format: cell-based; conditions: human, H-MEC-1, LC=cell killing (cytotoxic effect), read-out: LC50 H-MEC-1
Outline: (§2)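 Growth and viability quantified by sulforhodamine B staining in 96-well microplates. Triplicate wells give mean ± SD; derived endpoints are GI, TGI (cytostatic) and LC (cytotoxic).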

SKOV-3 [4] = assay: SRB colorimetric cell growth inhibition assay, SKOV-3; format: cell-based; conditions: Homo sapiens; for GI50: SK-OV-3, SKOV-3, GI=growth inhibition, read-out: GI50 SKOV-3; for IC (TGI): TGI=total growth inhibition (cytostatic effect), read-out: TGI SKOV-3
Outline: as §2

H-MEC-1 = assay: SRB colorimetric cell growth inhibition assay, H-MEC-1; format: cell-based; conditions: Homo sapiens, HMEC-1, H-MEC-1; for GI50: GI=growth inhibition; for IC (TGI): TGI=total growth inhibition (cytostatic effect), read-out: TGI H-MEC-1
Outline: as §2

HeLa-APL = assay: SRB colorimetric cell growth inhibition assay, HeLa-APL (aplidine resistant); format: cell-based; conditions: Homo sapiens, HELA-APL
Outline: (§3)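 Triplicate-well SRB colorimetry following continuous sample exposure of human tumour cells; reported parameters are GI, TGI for cytostatic effect, and LC for cytotoxic effect.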

HeLa = assay: SRB colorimetric cell growth inhibition assay, HeLa; format: cell-based; conditions: Homo sapiens, HeLa
Outline: as §3

[5] = SK-OV-3, SKOV-3, LC=cell killing (cytotoxic effect), read-out: LC50 SKOV-3

## COc1cc(-c2c3n(c4c(=O)oc5cc(OC(=O)[C@H](NC(=O)OC(C)(C)C)C(C)C)c(OC)cc5c24)CCc2cc(OC(=O)[C@H](NC(=O)OC(C)(C)C)C(C)C)c(OC)cc2-3)ccc1OC(=O)[C@H](NC(=O)OC(C)(C)C)C(C)C [Compound 34]
SKOV-3 [1]
  GI50: 1270 nM
  LC50 (concentration causing 50% net cell killing): 6650 nM
  IC (TGI): 2910 nM
[2]
  LC50 (concentration giving 50% net cell killing): 3440 nM

## COc1cc(-c2c3c4cc(OC)c(OC(=O)[C@@H](N)C(C)C)cc4oc(=O)c3n3ccc4cc(OC(=O)[C@@H](N)C(C)C)c(OC)cc4c23)ccc1OC(=O)[C@@H](N)C(C)C [Compound 36]
SKOV-3 [1]
  GI50: 39.2 nM
  LC50 (concentration causing 50% net cell killing): 5890 nM
  IC (TGI): 297 nM
[2]; H-MEC-1 cells
  LC50 (concentration giving 50% net cell killing): 1350 nM
Human topoisomerase I
  stimulation of DNA cleavage by topoisomerase I (radiolabeled DNA substrate): no difference between the (L) (36) and (D) (17) Val isomers
  topoisomerase I-mediated DNA cleavage sites / cleavage profile: Cleavage profiles identical to that of 3

## COc1cc(-c2c3c4cc(OC)c(OC(=O)[C@@H](NC(=O)OC(C)(C)C)C(C)C)cc4oc(=O)c3n3ccc4cc(OC(=O)[C@@H](NC(=O)OC(C)(C)C)C(C)C)c(OC)cc4c23)ccc1OC(=O)[C@@H](NC(=O)OC(C)(C)C)C(C)C [Compound 38]
[3]
  CC50: 9110 nM
SKOV-3 [1]
  GI50: 684 nM
  IC (TGI): 7420 nM
SKOV-3 [4]; SK-OV-3, read-out: LC50 SKOV-3
  CC50: 9110 nM

## COc1cc(-c2c3c4cc(OC)c(OC(=O)[C@@H](N)CC(C)C)cc4oc(=O)c3n3ccc4cc(OC(=O)[C@@H](N)CC(C)C)c(OC)cc4c23)ccc1OC(=O)[C@@H](N)CC(C)C [Compound 39]
[3]; H-MEC-1 cells
  CC50: 8470 nM
H-MEC-1
  GI50: 6.98 nM
  IC (TGI): 8470 nM
SKOV-3 [4]
  GI50: 63.4 nM
SKOV-3 [4]; [5]
  CC50: 8470 nM
SKOV-3 [4]; SK-OV-3, SKOV-3
  IC (TGI): 8470 nM
Human topoisomerase I
  topoisomerase I-mediated DNA cleavage sites / cleavage profile: Cleavage profiles identical to that of 3

## COc1cc(-c2c3c4cc(OC)c(OC(=O)[C@H](C)N)cc4oc(=O)c3n3ccc4cc(OC(=O)[C@H](C)N)c(OC)cc4c23)ccc1OC(=O)[C@H](C)N [Compound 40]
SKOV-3 [4]
  GI50: 28.4 nM
SKOV-3 [4]; [5]
  CC50: 9480 nM
SKOV-3 [4]; SK-OV-3, SKOV-3
  IC (TGI): 107 nM

## COc1cc(-c2c3n(c4c(=O)oc5cc(O)c(OC)cc5c24)CCc2cc(O)c(OC)cc2-3)ccc1O [Compound 109]
[3]; H-MEC-1 cells
  CC50: 19900 nM
H-MEC-1
  GI50: 917 nM
  IC (TGI): 19900 nM
SKOV-3 [4]
  GI50: 2490 nM
SKOV-3 [4]; [5]
  CC50: 19900 nM
SKOV-3 [4]; SK-OV-3, SKOV-3
  IC (TGI): 11800 nM

## COc1cc(-c2c3c4cc(OC)c(OC(=O)CCCCCN)cc4oc(=O)c3n3ccc4cc(OC(=O)CCCCCN)c(OC)cc4c23)ccc1OC(=O)CCCCCN [Compound 169]
HeLa-APL; GI=growth inhibition, read-out: GI50 HELA-APL
  GI50: 70.5 nM
HeLa-APL; cell killing (cytotoxic effect), read-out: LC50 HELA-APL
  CC50: 2970 nM
HeLa-APL; total growth inhibition (cytostatic effect), read-out: TGI HELA-APL
  IC (TGI): 530 nM
Human topoisomerase I
  stimulation of DNA cleavage by topoisomerase I (radiolabeled DNA substrate): stimulate DNA cleavage by the enzyme
HeLa; GI=growth inhibition, read-out: GI50 HELA
  GI50: 55.7 nM
HeLa; cell killing (cytotoxic effect), read-out: LC50 HELA
  CC50: 4420 nM
HeLa; total growth inhibition (cytostatic effect), read-out: TGI HELA
  IC (TGI): 1390 nM
